These results are taken from PubChem BioAssay AID1462 (Emory University Molecular Libraries Screening Center, 2008).

Several values for one entry are separate records, joined by “and”; a condition that tells them apart may be missing. Identical values can stand only once.

The target in the assay is Protein GrpE (Escherichia coli (strain K12)) (UniProt P09372). As to the kind of experiment: inhibition of DnaK/DnaJ/GrpE luciferase refolding – biochemical, luminescence, E. coli K12, dose response (AID 1462). The following applies: DnaK/DnaJ/GrpE denatured luciferase refolding.
Protein GrpE (Escherichia coli (strain K12)), sequence (P09372 whole entry, looked up): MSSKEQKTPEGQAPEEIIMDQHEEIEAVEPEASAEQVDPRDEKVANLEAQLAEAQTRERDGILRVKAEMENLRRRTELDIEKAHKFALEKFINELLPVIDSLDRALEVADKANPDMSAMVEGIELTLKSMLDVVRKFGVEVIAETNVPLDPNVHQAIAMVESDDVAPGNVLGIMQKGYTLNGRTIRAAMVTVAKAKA

A word on the IC50: it is the concentration that gives 50% inhibition. Regarding `Nc1c(S(=O)(=O)O)cc(Nc2ccc(Nc3nc(Cl)nc(Nc4ccc(S(=O)(=O)O)cc4)n3)c(S(=O)(=O)O)c2)c2c1C(=O)c1ccccc1C2=O`, the IC50 was 1660 nM and 551 nM.
